Values of other authors, collected in US20220304303A1, “INSECT REPELLENT PATCHES” (The Natural Patch Company Pty Ltd, priority 2021, published 2022).

Conditions: products containing between 10% and 30% DEET, used as directed

For CCN(CC)C(=O)c1cccc(C)c1 [DEET, Diethyltoluamide], the “safety in use on children and adults” value is listed as “safe to use on children, as well as adults”.
